Results from US11542295B2, “Use of 20-hydroxyecdysone and the derivatives thereof in the treatment of myopathies” (BIOPHYTIS, priority 2017, dated 2023).

How the values were obtained:
[1] = system: CTGF (connective tissue growth factor); assay: Heart mRNA expression of fibrosis marker CTGF (semi-quantitative PCR); format: in vivo, mouse; details: mdx mice, 50 mg/kg*day, two months; p=0,0506
Description: (§1) Twelve-week-old C57BL10 gene pool (wild mice referred to as “C57” in the figures) and C57BL10 mdx (mouse model of Duchenne muscular dystrophy, referred to as “mdx” in the figures) male mice, produced at Charles Rivers, were used. Two groups of mdx were chronically exposed per os either to BIO101 (number of mice n=9) or to BIO103 (number of mice n=9) at a dose of 50 mg/kg*day. A group of C57 mice (number of mice n=5) and a group of mdx mice (number of mice n=15) received the vehicle, i.e. no treatment. The animals of all of the groups were tested for their functional capacity (exertion tolerance test) after two months of treatment. […]
(§2) An assessment of markers of fibrosis and cardiac hypertrophy is carried out at the end of the protocol, i.e. after two months of treatment. […] The extract RNA is quantified by spectrophotometry then the quality thereof is verified and validated with the Experion RNA StdSens Analysis Kit (Bio-Rad). […] Finally, semi-quantitative PCR analysis was carried out using SYBR® Green (Roche), a DNA intercalating agent and a LightCycler® 480 Real Time PCR (Roche) apparatus on 384-well plates. The molecular markers measured are as follows: • CTGF and collagen I: connective tissue growth factor (CTGF) is associated with healing and with many pathological fibrotic processes including DMD (Brigstock 2010; Song Y. 2017). […]

[2] = system: BMP4 (bone morphogenetic protein 4); assay: Heart mRNA expression of BMP4 (semi-quantitative PCR); format: in vivo, mouse; details: mdx mice, 50 mg/kg*day, two months; p=0.0529
Description: as §1, §2

[3] = system: tibialis anterior muscle of C57BL10 mdx mice; assay: Histological study of tibialis anterior muscle stained with haematoxylin eosin (lesion profiles); format: in vivo, mouse; details: 50 mg/kg*day, two months, HE staining
Description: (§3) Twelve-week-old C57BL10 gene pool (wild mice referred to as “C57” in the figures) and C57BL10 mdx (mouse model of Duchenne muscular dystrophy, referred to as “mdx” in the figures) male mice, produced at Charles Rivers, were used. Two groups of mdx were chronically exposed per os either to BIO101 (number of mice n=9) or to BIO103 (number of mice n=9) at a dose of 50 mg/kg*day. A group of C57 mice (number of mice n=5) and a group of mdx mice (number of mice n=15) received the vehicle, i.e. no treatment. The animals of all of the groups were tested for their functional capacity (exertion tolerance test) after two months of treatment. The exertion tolerance test consists of measuring the maximum distance travelled (in-toto activity; FIGS. 1A and 1B). Furthermore, measurements of the maximum absolute isometric strength of the tibialis anterior muscle (in-situ activity; FIGS. 2A and 2B) were made after two months of treatment.
An assessment of muscle fibrosis by histological study is carried out on the tibialis anterior muscle (abbreviated as TA). Histological sections (7 μm) are produced and stained either with haematoxylin eosin (HE) or with Sirius Red (SR).
An anatomopathological study of the sections of tibialis anterior muscle stained with HE makes it possible to assess the degree of muscle fibre involvement. Representative images of tibialis anterior muscle sections stained with HE obtained from C57 animals (FIG. 4A), mdx animals (FIG. 4B), mdx animals treated with BIO101 (FIG. 4C) and mdx animals treated with BIO103 (FIG. 4D) are shown. The scale bars correspond to 200 μm. The TA muscles of C57 mice show no muscle lesions (FIG. 4A). The TA muscles of untreated mdx mice show a wide diversity of lesion profiles: moderate anisocytosis with numerous necrotic fibres. […] The A sign indicates the inflammatory foci with which fibrosis is associated. […] Indeed, 67% (6 out of 9 TA muscles) of the muscles treated with BIO103 can be classified in this category.

AKT = AKT phosphorylation in human DMD myocytes (Western Blot); format: cell-based; details: 10 μM, 10 minutes to 24 hours, vs untreated control
Description: Human DMD skeletal muscle cells (KM571DMD1OFL Cl1) were differentiated for 5 days then optionally incubated with BIO101 at 10 μM for periods of between 10 minutes and 24 hours.
A densitometric analysis of results of at least 6 independent Western Blot experiments described the effects of BIO101 on the phosphorylation of AKT (FIG. 8A) and ERK1/2 (FIG. 8B) is shown, *p<0.05 versus the untreated control.

[4] = system: tibialis anterior muscle of C57BL10 mdx mice; assay: Skeletal muscle vascularisation (number of vessels per muscle fibre, anti-laminin / anti-CD31 labelling); format: in vivo, mouse; details: 50 mg/kg*day per os, two months of daily exposure
Description: A quantitative vascularisation study was carried out on sections of tibialis anterior muscle (abbreviated as TA) of healthy C57 mice as well as on mdx mice treated with the vehicle and mdx mice treated with BIO101 or BIO103. Double immunofluorescence labelling is carried out, anti-laminin labelling with the function of identifying the basal membrane of the muscle fibres and anti-CD31 labelling having the function of identifying the vessel. The number of vessels per muscle fibre is quantified. The mdx animals received daily, per os, either the vehicle or BIO101 (50 mg/kg*day) or BIO103 (50 mg/kg*day).

Col1a1 (collagen 1) = assay: Heart mRNA expression of fibrosis marker Col1a1 (semi-quantitative PCR); format: in vivo, mouse; details: mdx mice, 50 mg/kg*day, two months
Description: as §1, §2

collagen I = assay: Collagen I protein expression in gastrocnemius muscle (Western Blot); format: in vivo, mouse; details: 50 mg/kg*day, two months, p<0.01
Description: as §3
Alongside the observations made on the tibialis anterior muscle, an assessment of a marker of muscle fibrosis is carried out on the gastrocnemius muscle. The muscle is dissociated with moderate stirring for 16 h at 4° C. in RIPA lysis buffer. […] Collagen I is detected by Western Blot, detected by chemiluminescence then quantified by densitometry after normalisation with reference to GAPDH detection. […]

Row | Compound | genic expression of CTGF in heart compared to control mdx animals [1] | genic expression of BMP4 in heart compared to control mdx animals [2] | TA muscles with minor lesion profile [3] | TA muscles with pronounced lesion profile (anisocytosis, dispersed necrotic fibres and variable inflammation) [3] | p-AKT (phosphorylation of AKT) (AKT) | increase of the number of vessels per muscle fibre compared to untreated mdx animals (vehicle) [4] | genic expression of Col1a1 in heart compared to control mdx animals (Col1a1 (collagen 1)) | TA muscles with pronounced lesion profile tending towards atrophy [3] | TA muscles with pronounced lesion profile with a somewhat necrotic tendency [3] | TA muscles with severe lesion profile (large acute necrotic plaques with no regeneration) [3] | protein expression of collagen I in gastrocnemius muscle compared to untreated mdx mice (collagen I)
1 | CC(C)(O)CC[C@@H](O)[C@](C)(O)[C@H]1CC[C@@]2(O)C3=CC(=O)[C@@H]4C[C@@H](O)[C@@H](O)C[C@]4(C)[C@H]3CC[C@]12C [BIO101, 20-hydroxyecdysone] | prevents | reduces | 37.5% | 62.5% | significant increase | 14.1% | – | – | – | – | –
2 | CCSCC(=O)[C@H]1CC[C@@]2(O)C3=CC(=O)[C@@H]4C[C@@H](O)[C@@H](O)C[C@]4(C)C3CC[C@]12C (stereo partly drawn) [BIO103, (2S,3R,5R,10R,13R,14S,17S)-17-(2-ethylsulfanylacetyl)-2,3,14-trihydroxy-10,13-dimethyl-2,3,4,5,9,11,12,15,16,17-decahydro-1H-cyclopenta[a]phenanthren-6-one] | – | – | 67% | – | – | 28.2% | tends to prevent | 11% | 11% | 11% | significant decrease
